Molecular target: T1, Nuclear receptor subfamily 1 group I member 2 (Homo sapiens, UniProt O75469)
T1 sequence (O75469 whole entry): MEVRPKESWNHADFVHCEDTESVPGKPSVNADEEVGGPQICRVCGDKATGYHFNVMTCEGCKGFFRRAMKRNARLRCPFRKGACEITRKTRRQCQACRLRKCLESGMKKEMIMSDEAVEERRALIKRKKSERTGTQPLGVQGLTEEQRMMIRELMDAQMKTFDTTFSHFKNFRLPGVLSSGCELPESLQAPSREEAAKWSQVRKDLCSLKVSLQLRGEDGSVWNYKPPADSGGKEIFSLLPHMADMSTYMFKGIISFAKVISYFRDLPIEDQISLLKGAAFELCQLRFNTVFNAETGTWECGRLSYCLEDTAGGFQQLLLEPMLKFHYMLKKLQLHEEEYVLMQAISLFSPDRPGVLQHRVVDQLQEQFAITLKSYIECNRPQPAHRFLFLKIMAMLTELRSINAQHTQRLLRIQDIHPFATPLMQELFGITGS
Assay: Agonist activity at His-tagged PXR-LBD/SRC-1p (unknown origin) expressed in Escherichia coli BL21(DE3) by coactivator recruitment based Alpha-screen assay

Work on `Cc1c(C)c2c(c(C)c1O)CC[C@@](C)(CCC[C@H](C)CCC[C@H](C)CCCC(C)C(=O)O)O2` (stereo partly specified) yielded an EC50 of 3.3 µM.
